Test results taken from patent publication US20170158702A1, “MULTIVALENT RAS BINDING COMPOUNDS” (KYRAS THERAPEUTICS, INC., priority 2015, published 2017).
Where a name gives a salt, the structure may show the parent alone.

Tests used:
Format in all cases: cell-based
[1] = system: MIA PaCa-2; test: Viability assay with MIA PaCa-2; conditions: MIA PaCa-2, viability assay per Example 57
Outline: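 MIA PaCa-2 cells were seeded at 1200/well, allowed to adhere overnight, then treated in triplicate with 9-point 2-fold compound dilutions at 0.5% final DMSO. Viability was measured as cellular ATP by CellTiter-Glo luminescence 72 h after compound addition.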

[2] = system: NCI-H460; test: Viability assay with NCI-H460 (CellTiter-Glo cytotoxicity assay, 72 h); conditions: NCI-H460 cell line, 72 h after compounds addition
Outline: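 NCI-H460 cells, RPMI 1640 + 10% FBS, seeded 1200/well and adhered overnight, then exposed to compounds at 9 points, 2-fold dilution, in triplicate, 0.5% DMSO final. Cellular ATP measured by CellTiter-Glo luminescence 72 h after addition.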

[3] = system: U2OS; test: Viability assay with U2OS; conditions: viability assay per Example 57
Experimental: NCI-H460 (Epithelial lung tissue; carcinoma; large cell lung cancer) were cultured in RPMI Medium 1640 (Invitrogen-22400105) supplemented with 10% fetal bovine serum (FBS; Invitrogen-10099141). All the cell lines were maintained in a humidified incubator at 37° C. with 5% CO2. Cell culture media and supplements were purchased from Invitrogen, and tissue culture flasks were purchased from Corning, 96-well plates were purchased from Greiner. CellTiter-Glo Luminescent Cell Viability Assay kits were purchased from Promega (Promega-G7573), cells counter Vi-Cell was purchased from Beckman, D300e digital dispenser was purchased from Tecan, detection instrument Envision was purchased from PerkinElmer.
Paclitaxel was purchased from SELLECK, test compounds, such as any one of the compounds disclosed herein, attained solubility in DMSO and when diluted into culture media. DMSO, solutions containing the test compounds, and culture media were warmed to 37° C. or room temperature for the solution preparation and dilutions.
NCI-H460 Cell line were seeded in 96-well plates (1200/well) and allowed to adhere to overnight (100 uL/well), for drug treatments with 2 fold dilution, 9 dose points, triplicates or vehicle control, compound stock solutions were prepared in DMSO and use D300e digital dispenser to add compounds to the wells to give the indicated final drug concentrations. Final DMSO concentration was 0.5%. Cellular ATP concentrations were assessed by using the CellTiter-Glo Cell Viability Assay as per the manufacturer's instructions 72 h after compounds addition. Additional cells lines were assayed with any one of the compounds disclosed herein according to the procedures described for the viability assay with NCI-H460.
The viability assay with U2OS (epithelial bone tissue; osteosarcoma) was performed with compounds listed in Table 17 according to the procedures described in Example 57.

Measured: EC50

CN(CCNCc1ccc2c(c1)c(-c1ccc(OC(F)(F)F)cc1)cn2CCCN)Cc1ccccc1Cl [C173; HCl]
≤ 5 µM: all assays above

NCCN(CCN)CCCn1cc(-c2ccc(OC(F)(F)F)cc2)c2cc(CN3CCN(Cc4c(Cl)cccc4Cl)CC3)ccc21 [C7; Formic acid]
≤ 5 µM: all assays above

COc1cccc(CN2CCN(Cc3ccc4c(c3)c(-c3ccc(OC(F)(F)F)cc3)cn4CCCN)CC2)c1Cl [C12; HCl]
≤ 5 µM: all assays above

NCCCn1cc(-c2ccc(OC(F)(F)F)cc2)c2cc(CN3CCC(Cc4ccccc4Cl)CC3)ccc21 [C3; HCl]
≤ 5 µM: all assays above

NCCCn1cc(-c2ccc(OC(F)(F)F)cc2)c2cc(CN3CCN(Cc4cccc(Cl)c4Cl)CC3)ccc21 [C164; HCl]
≤ 5 µM: all assays above

N#Cc1cccc(-c2cccc(Cl)c2CN2CCN(Cc3ccc4c(c3)c(-c3cccc(C#N)c3)cn4CCCN)CC2)c1 [C4; HCl]
≤ 5 µM: all assays above

NCCCn1cc(-c2ccccc2Cl)c2cc(CN3CCN(Cc4c(Cl)cccc4Cl)CC3)ccc21 [C167; HCl]
≤ 5 µM: all assays above

NCCCn1cc(-c2ccc(OC(F)(F)F)cc2)c2cc(CN3CCC4(CC3)CCN(Cc3ccccc3Cl)C4)ccc21 [C5; HCl]
≤ 5 µM: all assays above

NCCCn1cc(-c2ccc(OC(F)(F)F)cc2)c2cc(CC3CCN(Cc4ccccc4Cl)CC3)ccc21 [C159; HCl]
≤ 5 µM: all assays above

NCCCn1cc(-c2ccc(OC(F)(F)F)cc2)c2cc(CN3CCN(Cc4cccc(C(F)(F)F)c4Cl)CC3)ccc21 [C155; HCl]
≤ 5 µM: all assays above

COc1ccc(F)c(CN2CCN(Cc3ccc4c(c3)c(-c3ccc(OC(F)(F)F)cc3)cn4CCCN)CC2)c1 [C1; HCl]
≤ 5 µM: all assays above

COc1ccc(-c2cn(CCCN)c3ccc(CN4CC5CCC(C4)N5Cc4ccccc4Cl)cc23)cc1 [C158; HCl]
≤ 5 µM: all assays above

N#Cc1ccccc1-c1cn(CCCN)c2ccc(CN3CCN(Cc4c(Cl)cccc4Cl)CC3)cc12 [C8; HCl]
≤ 5 µM: all assays above

NCCCn1cc(-c2ccc(CN)cc2)c2cc(CN3CCN(Cc4c(Cl)cccc4Cl)CC3)ccc21 [C10; Formic acid]
≤ 5 µM: all assays above

NCCCn1cc(-c2ccc(OC(F)(F)F)cc2)c2cc(CN3CCN(CC(F)(F)F)CC3)ccc21 [C160; HCl]
≤ 5 µM: all assays above

NCCCn1cc(-c2ccc(OC(F)(F)F)cc2)c2cc(CN3CCN(Cc4cc(F)ccc4Cl)CC3)ccc21 [C165; HCl]
≤ 5 µM: all assays above

COc1cc(CN2CCN(Cc3ccc4c(c3)c(-c3ccc(OC(F)(F)F)cc3)cn4CCCN)CC2)cc(OC)c1 [C11; HCl]
≤ 5 µM: all assays above
